Measurements: BindingDB's records for PubMed 11714892 (Recordati, 2001)

How the values were obtained:
[1] = target: T1, 5-hydroxytryptamine receptor 1A (Rattus norvegicus, UniProt P19327)
T1 sequence (P19327 whole entry): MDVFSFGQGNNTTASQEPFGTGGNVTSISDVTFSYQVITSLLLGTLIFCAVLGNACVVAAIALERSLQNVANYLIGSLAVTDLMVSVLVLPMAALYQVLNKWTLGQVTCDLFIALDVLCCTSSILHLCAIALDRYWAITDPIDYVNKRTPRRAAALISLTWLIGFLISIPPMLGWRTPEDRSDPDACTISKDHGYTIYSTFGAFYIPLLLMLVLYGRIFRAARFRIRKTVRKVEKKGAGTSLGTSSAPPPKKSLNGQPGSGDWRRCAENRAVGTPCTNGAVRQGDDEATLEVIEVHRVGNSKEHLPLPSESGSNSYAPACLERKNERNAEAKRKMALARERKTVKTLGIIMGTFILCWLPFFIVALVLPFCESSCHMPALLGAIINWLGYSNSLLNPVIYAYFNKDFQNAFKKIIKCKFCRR

[2] = target: T2, Alpha-1A adrenergic receptor (Homo sapiens, UniProt P35348)
T2 sequence (P35348 whole entry): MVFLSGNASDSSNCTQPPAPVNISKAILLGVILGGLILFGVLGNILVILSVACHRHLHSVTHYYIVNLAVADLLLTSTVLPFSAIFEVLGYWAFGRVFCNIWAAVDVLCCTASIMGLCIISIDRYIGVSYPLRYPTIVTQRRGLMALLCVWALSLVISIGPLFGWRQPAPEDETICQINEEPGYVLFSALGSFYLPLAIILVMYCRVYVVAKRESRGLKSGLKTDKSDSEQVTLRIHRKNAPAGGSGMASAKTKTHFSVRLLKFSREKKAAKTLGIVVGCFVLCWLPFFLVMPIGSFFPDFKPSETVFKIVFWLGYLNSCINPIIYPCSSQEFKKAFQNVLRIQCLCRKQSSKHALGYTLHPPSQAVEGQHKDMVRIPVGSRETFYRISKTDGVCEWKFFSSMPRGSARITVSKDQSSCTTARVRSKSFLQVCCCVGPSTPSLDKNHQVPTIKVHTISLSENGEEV

[3] = target: T3, Alpha-1D adrenergic receptor (Homo sapiens, UniProt P25100)
T3 sequence (P25100 whole entry): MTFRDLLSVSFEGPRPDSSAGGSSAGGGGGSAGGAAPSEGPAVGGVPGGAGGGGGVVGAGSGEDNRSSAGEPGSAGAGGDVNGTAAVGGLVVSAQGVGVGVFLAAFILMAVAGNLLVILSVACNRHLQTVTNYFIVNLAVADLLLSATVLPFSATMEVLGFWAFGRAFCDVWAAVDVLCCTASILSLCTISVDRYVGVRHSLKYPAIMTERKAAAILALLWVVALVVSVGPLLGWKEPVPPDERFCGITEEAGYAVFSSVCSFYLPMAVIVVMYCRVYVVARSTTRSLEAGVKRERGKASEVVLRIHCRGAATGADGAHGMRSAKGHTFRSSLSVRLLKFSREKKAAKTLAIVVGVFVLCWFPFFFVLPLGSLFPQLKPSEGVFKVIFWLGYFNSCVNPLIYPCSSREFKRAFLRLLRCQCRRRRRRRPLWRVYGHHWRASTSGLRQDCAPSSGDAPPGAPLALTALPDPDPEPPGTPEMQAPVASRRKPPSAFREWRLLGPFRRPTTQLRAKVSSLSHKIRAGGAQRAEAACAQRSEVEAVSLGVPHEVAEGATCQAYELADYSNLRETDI

[4] = target: T4, Alpha-1B adrenergic receptor (Homo sapiens, UniProt P35368)
T4 sequence (P35368 whole entry): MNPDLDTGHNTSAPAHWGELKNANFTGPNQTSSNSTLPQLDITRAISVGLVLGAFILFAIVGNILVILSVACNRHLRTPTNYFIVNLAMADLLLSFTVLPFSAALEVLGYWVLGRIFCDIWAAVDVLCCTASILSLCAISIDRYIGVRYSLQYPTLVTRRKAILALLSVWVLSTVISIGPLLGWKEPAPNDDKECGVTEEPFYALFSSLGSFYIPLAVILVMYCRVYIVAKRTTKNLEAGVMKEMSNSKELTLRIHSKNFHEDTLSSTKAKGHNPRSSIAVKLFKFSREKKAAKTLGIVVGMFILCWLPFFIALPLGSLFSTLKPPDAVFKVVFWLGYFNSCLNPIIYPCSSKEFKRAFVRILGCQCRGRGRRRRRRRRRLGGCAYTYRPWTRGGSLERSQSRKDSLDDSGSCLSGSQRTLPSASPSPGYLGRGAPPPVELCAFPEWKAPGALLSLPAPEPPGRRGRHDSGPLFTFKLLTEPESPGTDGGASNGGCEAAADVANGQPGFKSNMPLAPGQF

## COc1ccccc1N1CCN(CCN(C(=O)C2CCCCC2)c2ccccc2[N+](=O)[O-])CC1 [N-[2-[4-(2-methoxyphenyl)-1-piperazinyl]-ethyl]-N-(2-nitrophenyl)cyclohexanecarboxamide]
[1]
  Ki: 0.7 nM
[2]
  Ki: 81 nM
[3]
  Ki: 5.7 nM
[4]
  Ki: 105 nM
